How the values were obtained:
ULK1 = molecular target: T1, ULK1 (Homo sapiens, UniProt O75385); assay: Inhibition of ULK1 protein activity (phosphorylation function), ADP-Glo method; type: biochemical
T1 construct: purchased Promega V3521
T1 sequence (O75385 1-1050): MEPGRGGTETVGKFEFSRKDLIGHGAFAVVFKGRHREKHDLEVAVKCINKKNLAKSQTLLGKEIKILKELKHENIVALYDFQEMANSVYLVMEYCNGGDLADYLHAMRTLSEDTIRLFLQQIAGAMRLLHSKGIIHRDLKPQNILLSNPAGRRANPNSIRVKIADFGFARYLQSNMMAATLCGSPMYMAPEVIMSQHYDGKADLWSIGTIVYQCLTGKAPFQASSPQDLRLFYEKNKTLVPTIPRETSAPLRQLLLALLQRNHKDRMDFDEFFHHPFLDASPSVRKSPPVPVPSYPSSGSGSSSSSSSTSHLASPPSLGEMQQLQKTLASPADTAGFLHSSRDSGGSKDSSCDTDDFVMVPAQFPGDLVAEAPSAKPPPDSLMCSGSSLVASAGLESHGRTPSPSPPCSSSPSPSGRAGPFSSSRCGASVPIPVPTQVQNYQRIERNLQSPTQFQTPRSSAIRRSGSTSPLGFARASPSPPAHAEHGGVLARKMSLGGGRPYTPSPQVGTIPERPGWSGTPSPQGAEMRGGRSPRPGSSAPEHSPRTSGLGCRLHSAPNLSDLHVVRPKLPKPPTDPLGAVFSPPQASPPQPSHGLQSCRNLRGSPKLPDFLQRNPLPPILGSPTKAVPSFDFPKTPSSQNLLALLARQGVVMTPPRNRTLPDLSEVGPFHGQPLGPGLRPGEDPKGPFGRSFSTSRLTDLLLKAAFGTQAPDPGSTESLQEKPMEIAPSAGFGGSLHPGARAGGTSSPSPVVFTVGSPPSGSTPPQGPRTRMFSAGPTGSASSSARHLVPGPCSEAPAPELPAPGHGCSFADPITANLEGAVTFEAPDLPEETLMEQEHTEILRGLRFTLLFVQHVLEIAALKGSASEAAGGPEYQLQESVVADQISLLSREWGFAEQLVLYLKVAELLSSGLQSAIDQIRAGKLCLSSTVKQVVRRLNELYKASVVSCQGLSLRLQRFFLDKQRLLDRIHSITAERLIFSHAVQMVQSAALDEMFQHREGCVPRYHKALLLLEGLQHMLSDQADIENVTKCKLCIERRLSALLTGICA
Method: In this experiment, the inhibitory effect of a compound on the phosphorylation function of ULK1 was detected by ADP-Glo method. The inhibitory effect of the compound of the present disclosure on the ULK1 target was evaluated based on IC50.
Compound formulation: Using an ECHO (Beckman, ECHO650), the compound was serially diluted 3-fold in DMSO in a 384-well plate (PE, 6007290). A total of 10 concentration points were set, with the maximum concentration of the compound being 10 µM, and 50 nL per well. Positive control wells and negative control wells were added with 50 nL DMSO, respectively.
Reaction process: A 32 nM of ULK1 (Promega, V3521) solution was formulated, and 2.5 µL/well was transferred to the compound test wells and the negative control wells (NC). 2.5 µL/well of 1× Assay buffer was added to the positive control wells (PC). A mixed solution of 100 µM of ATP and 1.86 µM of MBP was formulated, and 2.5 µL/well was transferred to the reaction plate. After centrifugation, the reaction was initiated and incubated at room temperature for 60 min. After the reaction was completed, 5 µL/well of ADP-Glo Reagent (Promega, V9102) was added to the reaction plate. After centrifugation, the reaction was incubated at room temperature for 40 minutes. Finally, 10 µL/well of Kinase Detection Buffer was added, followed by centrifugation and incubation at room temperature for 30 min. The chemiluminescence value was read using Envision (PE, Envision2105).
Assay buffer: a reaction buffer; and Kinase Detection buffer: a detection buffer, both were taken from the ADP-Glodetection kit, purchased from Promega, model V9102.
The inhibition ratio of a compound on ULK1 activity was calculated using the following formula: [formula]
The dose-effect curve was fitted using the log(inhibitor) vs. response -Variable slope of the analysis software GraphPad Prism 8, thereby affording the IC50 value of each compound for enzyme activity.

[1] = system: autophagy level in HEK293 GFP-LC3 stably transfected cells; assay: Inhibition of autophagy level in HEK293 GFP-LC3 stably transfected cells (GFP fluorescence, high-content imaging); type: cell-based; conditions: Homo sapiens, Torin1 100 nM, 24 h incubation, 8 concentrations, highest 10 µM, read-out: Autophagic Flux IC50
Method: The inhibitory effect of the compound of the present disclosure on intracellular autophagy was evaluated by testing the impact of the compound of the present disclosure on the fluorescence intensity of HEK293 GFP-LC3 stably transfected cells.
HEK293 GFP-LC3 stably transfected cells (HEK293, ATCC, CRL-1573) were cultured in a complete medium, namely, a DMEM medium (Gibco, 11965-092) containing 10% fetal bovine serum (Corning, 35-081-CV), 1% double antibody (Gibco, 15140-122) and 1 µg/mL of Puromycin (Invitrogen- A1113803).
Cell plating: HEK293 GFP-LC3 stably transfected cells at 80% growth confluence were digested, diluted with a medium free of Puromycin, and added to a 96-well cell culture plate (Geriner, 655090) at 12,000 cells per well, with a volume of 90 µL.
Compound incubation: 5 µL of Torin1 and 5 µL of a serially diluted compound were added to each well so that the highest concentration of the compound in the reaction system was 10 µM. 3-fold serial dilution with 8 concentrations was performed, and the final concentration of Torin1 was 100 nM. The DMSO content in the system was 0.1%. The positive control wells (PC) contain DMSO at a final concentration of 0.1%, and the negative control wells (NC) contain 100 nM of Torin1 with 0.1% of DMSO. The reaction plate was placed in an incubator at 37°C in 5% CO2, and was incubated for 24 h.
Cell staining and fixation: The cell plate was taken out, and 10 µL of Hochest33342 nuclear staining reagent (Thermo, H1399) was added to each well, followed by incubation at 37°C in 5% CO2 for 30 min. After the incubation was completed, the cell supernatant was discarded, and 100 µL of pre-cooled 4% paraformaldehyde was added to each well to fix the cells for 15 min. Then, the fixative was discarded, and 100 µL of PBS was added to each well. Images were captured for analysis using a high-content cell imaging analyzer (PE, Operetta CLS), and GFP fluorescence signals were collected for data processing.
The average GFP fluorescence signal intensity in the reaction wells was collected for the calculation of the inhibition ratio: [formula]
The dose-effect curve was fitted using the log(inhibitor) vs. response -Variable slope of Graphpad Prism8, thereby affording the IC50 value of each compound for inhibiting autophagy level in HEK293 GFP-LC3 stably transfected cells.

**Q.** For `CN1CCN2c3ccc(Nc4ncc(C(F)(F)F)c(OCCCn5cccn5)n4)cc3COCC2C1` (stereo not shown) [Compound 23], which IC50 (ULK1) is on record?
**A.** Its IC50 is under 0.1 µM.

**Q.** What about the IC50 [1] of the same compound?
**A.** The IC50 was 0.1 to 1 µM.

**Q.** What does the source list for `CN1CCN2c3ccc(Nc4ncc(C(F)(F)F)c(N5CC6(CCN(C)C6)C5)n4)cc3COCC2C1` (stereo not shown) [Compound 20]?
**A.** IC50 (ULK1): < 0.1 µM; IC50 [1]: > 1 µM

**Q.** `CN1CCN2c3ccc(Nc4ncc(C(F)(F)F)c(N5CCC(n6cccn6)CC5)n4)cc3COCC2C1` (stereo not shown) [Compound 4] was tested. Which IC50 (ULK1) did it give?
**A.** The IC50 was under 0.1 µM.

**Q.** What about the IC50 [1] of the same compound?
**A.** The IC50 was 0.1 to 1 µM.

**Q.** `CN1CCN2c3ccc(Nc4ncc(C(F)(F)F)c(NCCCn5cccn5)n4)cc3COCC2C1` (stereo not shown) [Compound 8] was tested. Which IC50 (ULK1) did it give?
**A.** The IC50 was under 0.1 µM.

**Q.** And the IC50 [1]?
**A.** Its IC50 is 0.1 to 1 µM.

**Q.** For `CN1CCN2c3ccc(Nc4ncc(C(F)(F)F)c(N5CCC6(CCN(C)C6)CC5)n4)cc3COCC2C1` (stereo not shown) [Compound 2], which IC50 (ULK1) is on record?
**A.** Its IC50 is under 0.1 µM.

**Q.** And the IC50 [1]?
**A.** Its IC50 is 0.1 to 1 µM.

**Q.** What does the source list for `CN1CCN2c3ccc(Nc4ncc(C(F)(F)F)c(N[C@H]5CC[C@@H](n6cccn6)CC5)n4)cc3COCC2C1` (stereo partly shown) [Compound 6]?
**A.** IC50 (ULK1): < 0.1 µM; IC50 [1]: 0.1 to 1 µM

**Q.** How did the IC50 (ULK1) turn out when `CN1CCN2c3ccc(Nc4ncc(C(F)(F)F)c(OCCCN5CCCCC5=O)n4)cc3OCC2C1` (stereo not shown) [Compound 12] was run?
**A.** Its IC50 is under 0.1 µM.

**Q.** What about the IC50 [1] of the same compound?
**A.** The IC50 was 0.1 to 1 µM.

**Q.** For `CN1CCN2c3ccc(Nc4ncc(C(F)(F)F)c(OCCCc5ccccc5C#N)n4)cc3COCC2C1` (stereo not shown) [Compound 9], which IC50 (ULK1) is on record?
**A.** Its IC50 is under 0.1 µM.

**Q.** What about the IC50 [1] of the same compound?
**A.** The IC50 was 0.1 to 1 µM.

**Q.** Which IC50 (ULK1) does the source give for `CN1CCN2c3ccc(Nc4ncc(C(F)(F)F)c(N5CCN(C)C(=O)C5)n4)cc3COCC2C1` (stereo not shown) [Compound 1] here?
**A.** The IC50 was 0.1 to 1 µM.

**Q.** And the IC50 [1]?
**A.** The IC50 was over 1 µM.

**Q.** `CN1CCN2c3ccc(Nc4ncc(C(F)(F)F)c(NCCCN5CCCCC5=O)n4)cc3COCC2C1` (stereo not shown) [Compound 11] was tested. Which IC50 (ULK1) did it give?
**A.** The IC50 was under 0.1 µM.

**Q.** And the IC50 [1]?
**A.** Its IC50 is over 1 µM.

**Q.** Which IC50 (ULK1) does the source give for `CN1CCN2c3ccc(Nc4ncc(C(F)(F)F)c(N5CCC6(CCN(C)C6)C5)n4)cc3COCC2C1` (stereo not shown) [Compound 5] here?
**A.** The IC50 was under 0.1 µM.

**Q.** And the IC50 [1]?
**A.** Its IC50 is 0.1 to 1 µM.

**Q.** What does the source list for `CN1CCN2c3ccc(Nc4ncc(C(F)(F)F)c(N5CC6(CN(C)C6)C5)n4)cc3COCC2C1` (stereo not shown) [Compound 22]?
**A.** IC50 (ULK1): < 0.1 µM; IC50 [1]: > 1 µM

**Q.** Which results are given for `CN1CCN2c3ccc(Nc4ncc(C(F)(F)F)c(OCCCN5CCCCC5=O)n4)cc3COCC2C1` (stereo not shown) [Compound 3]?
**A.** IC50 (ULK1): < 0.1 µM; IC50 [1]: 0.1 to 1 µM

**Q.** Which IC50 (ULK1) does the source give for `CN1CCN2c3ccc(Nc4ncc(C(F)(F)F)c(NC5CCN(C(=O)C6CCC6)CC5)n4)cc3COCC2C1` (stereo not shown) [Compound 21] here?
**A.** Its IC50 is under 0.1 µM.

**Q.** And the IC50 [1]?
**A.** The IC50 was 0.1 to 1 µM.

From EP4778931A1, “ULK1 INHIBITOR, PREPARATION METHOD THEREFOR AND USE THEREOF” (Dovetree Medicines Unus, Inc., priority 2023, dated 2025)
